According to US9815851B2, “Pyrrolo carboxamides as modulators of orphan nuclear receptor RAR-related orphan receptor-gamma (RORγ, NR1F3) activity and for the treatment of chronic inflammatory and autoimmune diseases” (PHENEX PHARMACEUTICALS AG, priority 2011, dated 2017):
Read-outs that look alike come from different tables or passages of the source.

Assays:
[1] = molecular target: T1, RORγ (UniProt P51449); test: RORγ Gal4 Reporter Gene Assay in 293T cells (firefly and renilla luciferase); format: cell-based, human
T1 sequence (P51449 1-518): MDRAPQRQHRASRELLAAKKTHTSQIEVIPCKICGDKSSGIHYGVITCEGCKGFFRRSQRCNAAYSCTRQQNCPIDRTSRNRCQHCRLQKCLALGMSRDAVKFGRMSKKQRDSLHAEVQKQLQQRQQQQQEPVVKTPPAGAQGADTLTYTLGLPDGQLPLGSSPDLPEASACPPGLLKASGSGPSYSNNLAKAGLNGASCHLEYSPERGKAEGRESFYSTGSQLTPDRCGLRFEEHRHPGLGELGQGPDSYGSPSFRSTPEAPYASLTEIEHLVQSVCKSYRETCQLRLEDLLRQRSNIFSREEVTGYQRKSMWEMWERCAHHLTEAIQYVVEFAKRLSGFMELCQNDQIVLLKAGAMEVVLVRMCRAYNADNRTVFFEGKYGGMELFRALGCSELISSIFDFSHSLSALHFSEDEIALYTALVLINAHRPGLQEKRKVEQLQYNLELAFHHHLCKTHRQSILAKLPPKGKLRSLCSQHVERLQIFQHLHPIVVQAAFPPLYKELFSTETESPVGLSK

[2] = molecular target: T2, RORγ ligand binding domain (LBD) (Homo sapiens, UniProt P51449); test: TR-FRET Activity Assay (ligand sensing, RORγ-LBD / coactivator peptide interaction, LANCE); format: biochemical
T2 construct: made in house; host or cells: E. coli BL-21 (BL3), vector pDEST15
T2 sequence (P51449 269-508 limits assumed): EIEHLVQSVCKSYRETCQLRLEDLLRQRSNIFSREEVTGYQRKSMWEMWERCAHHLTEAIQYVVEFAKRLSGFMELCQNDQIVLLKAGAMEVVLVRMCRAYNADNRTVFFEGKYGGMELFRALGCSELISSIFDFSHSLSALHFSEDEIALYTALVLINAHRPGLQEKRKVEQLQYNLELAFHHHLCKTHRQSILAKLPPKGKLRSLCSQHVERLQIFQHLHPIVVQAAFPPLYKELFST

[3] = second value of the cell, Gal4 reporter gene assay in 293T cells, firefly luciferase
[4] = third value of the cell, Gal4 reporter gene assay in 293T cells, renilla normalised luciferase
[5] = first value of the cell FRET/FF/REN, TR-FRET activity assay, read-out: pIC50 (FRET) (converted)

| Compound | pIC50 (FF) [1, 3] | pIC50 (REN) [1, 4] | IC50 [2, 5] | IC50 [2] | pIC50 (FF) [1] | pIC50 (REN) [1] |
| --- | --- | --- | --- | --- | --- | --- |
| CC(C)(C)NS(=O)(=O)c1ccc(-c2cc(C(=O)NC3CCOCC3)cn2CC2CCCCC2)cc1C(C)(C)C [17/116] | 7.3 | 7.3 | – | 631 nM | – | – |
| CC(C)(C)NS(=O)(=O)c1ccc(-c2cc(C(=O)NC3CCOCC3)c(CO)n2CC2CCCCC2)cc1C(C)(C)C [17/117] | – | – | – | 1000 nM | 6.0/7.6/7.7 | 6.0/7.6/7.7 |
| CCNC(=O)NC(C)(C)CNC(=O)c1cc(-c2cc(C(C)(C)C)c3c(c2)C2(CCO3)CC2)n(CC2CCCCC2)c1C [17/120] | 6.1 | 6.0 | 2510 nM | – | – | – |
| Cc1c(C(=O)NCC(C)(C)NC(=O)C(C)O)cc(-c2cc(C(C)(C)C)cc(C3(C)CC3)c2)n1CC1CCCCC1 (stereo not drawn) [17/121] | 7.6 | 7.7 | 316 nM | – | – | – |
| COCC(=O)NC(C)(C)CNC(=O)c1cc(-c2cc(C(C)(C)C)cc(C3(C)CC3)c2)n(CC2CCCCC2)c1C [17/122] | – | – | – | 398 nM | 6.4/7.6/7.5 | 6.4/7.6/7.5 |
| Cc1c(C(=O)NCC(C)(C)NC(=O)C(C)O)cc(-c2cc(C(C)(C)C)c3c(c2)C2(CCO3)CC2)n1CC1CCCCC1 (stereo not drawn) [17/123] | – | – | – | 3160 nM | 5.5/7.0/7.0 | 5.5/7.0/7.0 |
| COCC(=O)NC(C)(C)CNC(=O)c1cc(-c2cc(C(C)(C)C)c3c(c2)C2(CCO3)CC2)n(CC2CCCCC2)c1C [17/124] | – | – | – | 794 nM | 6.1/7.4/7.5 | 6.1/7.4/7.5 |
| CCN(C(C)(C)C)S(=O)(=O)c1ccc(-c2cc(C(=O)NC3CCOCC3)c(C)n2CC2CCCCC2)cc1C(F)F [17/125] | – | – | – | 79.4 nM | 7.1/6.4/6/ | 7.1/6.4/6/ |
| Cc1c(C(=O)NCC(C)(C)C(=O)O)cc(-c2ccc(S(=O)(=O)NC(C)(C)C)c(C(F)F)c2)n1CC1CCCCC1 [17/127] | 7.1 | 7.2 | 316 nM | – | – | – |
| Cc1c(C(=O)NCC(C)(C)C(N)=O)cc(-c2ccc(S(=O)(=O)NC(C)(C)C)c(C(F)F)c2)n1CC1CCCCC1 [17/128] | 8.0 | 8.0 | 200 nM | – | – | – |
| Cc1c(C(=O)NCC2(O)CCOCC2)cc(-c2ccc(S(=O)(=O)NC(C)(C)C)c(C(F)F)c2)n1CC1CCCCC1 [17/129] | – | – | – | 200 nM | 6.7/8.0/8.0 | 6.7/8.0/8.0 |
| Cc1c(C(=O)NC2CCOCC2)cc(-c2ccc(C(C)(C)C(=O)NC(C)(C)C)c(C(F)(F)F)c2)n1CC1CCCCC1 [17/132] | 6.3 | 6.2 | 3980 nM | – | – | – |
| Cc1c(C(=O)N2CCOC(C(=O)O)C2)cc(-c2ccc(S(=O)(=O)NC(C)(C)C)c(C(F)(F)F)c2)n1CC1CCCCC1 (stereo not drawn) [17/137] | < 4.7 | < 4.7 | 501 nM | – | – | – |
| Cc1c(C(=O)NC2CCOCC2)cc(-c2ccc(S(=O)(=O)NC(C)(C)CC(F)(F)F)c(C(F)(F)F)c2)n1CC1CCCCC1 [17/143] | 8.2 | 8.2 | 126 nM | – | – | – |
| Cc1c(C(=O)NC2CCOCC2)cc(-c2cc(C(F)(F)F)c3c(c2)C(C)(C)C(=O)N3C)n1CC1CCCCC1 [17/148] | 7.0 | 7.0 | 794 nM | – | – | – |
| Cc1c(C(=O)N[C@H]2C[C@H](C(=O)O)C2)cc(-c2cc(C(F)(F)F)c3c(c2)C(C)(C)C(=O)N3C)n1CC1CCCCC1 [17/149] | 6.6 | 6.6 | 1260 nM | – | – | – |
| Cc1c(C(=O)NCCC(C)(C)C(=O)O)cc(-c2ccc(S(=O)(=O)N[C@@H](C)C(F)(F)F)c(C(F)(F)F)c2)n1CC1CCCCC1 [17/150] | 8.0 | 8.2 | 501 nM | – | – | – |
| Cc1c(C(=O)NCCC(C)(C)C(=O)O)cc(-c2ccc(S(=O)(=O)N[C@@H](C)C(F)(F)F)c(C(C)(C)C)c2)n1CC1CCCCC1 [17/152] | 8.2 | 8.2 | 1000 nM | – | – | – |
| COC(=O)C(C)(C)CCNC(=O)c1cc(-c2cc(C(C)(C)C)cc(C3(C)CC3)c2)n(CC2CCCCC2)c1C [17/153] | 6.7 | 6.7 | 316 nM | – | – | – |
| COC(=O)[C@H]1C[C@H](NC(=O)c2cc(-c3cc(C(C)(C)C)cc(C4(C)CC4)c3)n(CC3CCCCC3)c2C)C1 [17/154] | 7.2 | 7.3 | 316 nM | – | – | – |
| Cc1c(C(=O)N[C@H]2C[C@H](C(=O)O)C2)cc(-c2cc(C(C)(C)C)cc(C3(O)CC3)c2)n1CC1CCCCC1 [17/155] | 7.0 | 7.0 | 631 nM | – | – | – |

The next lines start with results.

| pIC50 (FF) [1, 3] | pIC50 (REN) [1, 4] | IC50 [2, 5] | Compound | IC50 [2] | pIC50 (FF) [1] | pIC50 (REN) [1] |
| --- | --- | --- | --- | --- | --- | --- |
| 6.3 | 6.5 | 10000 nM | CC(C)(C)NS(=O)(=O)c1ccc(-c2cc(C(=O)NC3CCOCC3)c(CF)n2CC2CCCCC2)cc1C(C)(C)C [17/118] | – | – | – |
| 7.6 | 7.7 | 501 nM | CC(C)(C)NS(=O)(=O)c1ccc(-c2cc(C(=O)NC3CCOCC3)c(Cl)n2CC2CCCCC2)cc1C(C)(C)C [17/119] | – | – | – |
| 6.7 | 6.9 | 316 nM | Cc1c(C(=O)NC2CCOCC2)cc(-c2ccc(S(=O)(=O)NC(C)(C)C)c(C(F)F)c2)n1CC1CCC1 [17/126] | – | – | – |
| 7.5 | 7.6 | 251 nM | Cc1c(C(=O)NCCC(C)(C)C(=O)O)cc(-c2ccc(S(=O)(=O)NC(C)(C)C)c(C(F)F)c2)n1CC1CCCCC1 [17/130] | – | – | – |
| 6.8 | 6.9 | 501 nM | Cc1c(C(=O)NC2CCOCC2)cc(-c2ccc(CC(=O)NC(C)(C)C)c(C(F)(F)F)c2)n1CC1CCCCC1 [17/131] | – | – | – |
| 6.3 | 6.3 | 1260 nM | Cc1c(C(=O)NC2CCOCC2)cc(-c2ccc(S(=O)(=O)NC(C)(C)C)c(C(F)(F)F)c2)n1CC1CC(F)(F)C1 [17/133] | – | – | – |
| 7.4 | 7.7 | 398 nM | Cc1c(C(=O)NCC(C)(C)CC(=O)O)cc(-c2ccc(S(=O)(=O)NC(C)(C)C)c(C(F)(F)F)c2)n1CC1CCCCC1 [17/134] | – | – | – |
| 6.7 | 6.7 | 631 nM | Cc1c(C(=O)NCCC(C)(C)C(N)=O)cc(-c2ccc(S(=O)(=O)NC(C)(C)C)c(C(F)(F)F)c2)n1CC1CCCCC1 [17/135] | – | – | – |
| 6.6 | 6.7 | 794 nM | CNC(=O)C(C)(C)CCNC(=O)c1cc(-c2ccc(S(=O)(=O)NC(C)(C)C)c(C(F)(F)F)c2)n(CC2CCCCC2)c1C [17/136] | – | – | – |
| 7.1 | 7.3 | 200 nM | Cc1c(C(=O)N[C@@H]2CCCOC2)cc(-c2ccc(S(=O)(=O)NC(C)(C)C)c(C(F)(F)F)c2)n1CC1CCCCC1 [17/138] | – | – | – |
| 7.2 | 7.4 | 158 nM | Cc1c(C(=O)N[C@H]2CCCOC2)cc(-c2ccc(S(=O)(=O)NC(C)(C)C)c(C(F)(F)F)c2)n1CC1CCCCC1 [17/139] | – | – | – |
| 8.0 | 8.1 | 200 nM | Cc1c(C(=O)NC2CCOCC2)cc(-c2ccc(S(=O)(=O)NCC(F)(F)F)c(C(F)(F)F)c2)n1CC1CCCCC1 [17/140] | – | – | – |
| 8.3 | 8.5 | 316 nM | Cc1c(C(=O)NC2CCOCC2)cc(-c2ccc(S(=O)(=O)N[C@@H](C)C(F)(F)F)c(C(F)(F)F)c2)n1CC1CCCCC1 [17/141] | – | – | – |
| 7.4 | 7.6 | 398 nM | Cc1c(C(=O)NC2CCOCC2)cc(-c2ccc(S(=O)(=O)N[C@H](C)C(F)(F)F)c(C(F)(F)F)c2)n1CC1CCCCC1 [17/142] | – | – | – |
| 7.7 | 7.7 | 501 nM | Cc1c(C(=O)NC2CCOCC2)cc(-c2ccc(S(=O)(=O)NC3(C#N)CC3)c(C(F)(F)F)c2)n1CC1CCCCC1 [17/144] | – | – | – |
| 7.6 | 7.7 | 631 nM | Cc1c(C(=O)NC2CCOCC2)cc(-c2ccc(S(=O)(=O)NC3(C)COC3)c(C(F)(F)F)c2)n1CC1CCCCC1 [17/145] | – | – | – |
| 7.4 | 7.5 | 1000 nM | Cc1c(C(=O)NC2CCOCC2)cc(-c2ccc(S(=O)(=O)NC(C)C(C)(C)O)c(C(F)(F)F)c2)n1CC1CCCCC1 (stereo not drawn) [17/146] | – | – | – |
| 6.7 | 6.7 | 794 nM | Cc1c(C(=O)NC2CCOCC2)cc(-c2ccc(S(=O)(=O)NCC3(C)COC3)c(C(F)(F)F)c2)n1CC1CCCCC1 [17/147] | – | – | – |
| 8.3 | 8.3 | 316 nM | Cc1c(C(=O)NC2CCOCC2)cc(-c2ccc(S(=O)(=O)N[C@@H](C)C(F)(F)F)c(C(C)(C)C)c2)n1CC1CCCCC1 [17/151] | – | – | – |
